This is an account of results in article PMC3454376, “Salidroside Improves Behavioral and Histological Outcomes and Reduces Apoptosis via PI3K/Akt Signaling after Experimental Traumatic Brain Injury” (PLoS ONE, 2012).

Where two headings read alike, the source gives them in different places.

Data set [1] relates to mice subjected to controlled cortical impact injury. Put plainly: Residual cerebral tissue ratio, cresyl violet staining. It counts as in vivo. The settings on record: day 28; for preservation of brain tissue (ipsilateral/contralateral hemisphere volume): vehicle 76.4±3.3%, P<0.05. As for the experimental part: All animal procedures were approved by the Animal Research Committee at Cheng Hsin General Hospital (Animal permit number CHIACUC 101–08), and all procedures complied with the Guide for the Care and Use of Laboratory Animals published by the US National Institutes of Health (NIH Publication No. 85–23, revised 1996). Animals were housed under a 12-h light/dark cycle and at constant temperature (21–25°C) and humidity (45–50%). They were allowed free access to pellet chow and water. TBI in mice was induced by a CCI injury model as previously described. Briefly, 8-week-old male C57BL/6 mice (weighing 22–25 g) were anesthetized through the use of intraperitoneal injection of sodium pentobarbital (65 mg/kg; Rhone Merieux, Harlow, UK) and placed in a stereotaxic frame. A 5 mm craniotomy was performed over the right parietal cortex, centered on the coronal suture and 0.1 mm lateral to the sagittal suture, and injury to dura was avoided. Injury was induced using a pneumatic piston with a rounded metal tip (2.5 mm diameter) that was angled 22.5° to the vertical so that the tip was perpendicular with the brain surface at the center of the craniotomy. The impact, with a velocity of […] and a deformation depth of 2 mm below the dura, was applied. The bone flap was immediately replaced and sealed, and the scalp was sutured. Body temperature was monitored throughout the surgery by a rectal probe; temperature was maintained at 37.0±0.5°C using a heated pad. Mice were placed in a heated cage to maintain body temperature, while recovering from anesthesia. Sham-operated mice underwent the same procedure as injured mice, but without CCI.
Mice were anesthetized and positioned in a stereotaxic frame. LY294002 (200 nM in 0.5 µL of saline) or equal amount of physiological saline was intracerebroventricularly (icv) injected at 30 min before CCI as previously described. A 1 mm cranial burr hole was drilled into the skull. A 30-gauge needle on a Hamilton syringe was implanted into the lateral ventricle using stereotactic coordinates: 1.5 mm posterior to bregma and 1.0 mm right lateral to the midline, 2 mm in depth. LY294002 or saline was infused into the brain at a rate of 0.05 µL/min over 10 min with an infusion pump (KDS 310, KD Scientific Inc., Holliston, MA, USA), and the needle was left in place for an additional 20 min to prevent reflux. After the needle was removed, CCI procedure was conducted immediately. Sham-operated mice were infused icv with saline, but were not subjected to CCI.
Three sets of experiments were performed. […] To determine the optimal dose of salidroside, a pilot study was performed using 2 different doses (20 and 50 mg/kg) administered 10 min after injury, and neurological deficits and tissue damage were evaluated as the main outcomes. […]

On the set-up of data set [2]: method as in PMID 17631426. The settings on record: rats, cited from earlier work.
Data set [3] concerns primary cultured cortical neurons. Nature of the data set: MTT cell viability after in vitro neuronal stretch injury. The settings on record: added immediately after injury, MTT at 24 h, stretch alone 61.8±1.5%. The data set is classed as cell-based, C57BL/6 mice. As for the experimental part: All culture medium supplies were from Invitrogen (Invitrogen, Carlsbad, CA, USA). Cortical neuronal cells were prepared from embryonic day 15.5 C57BL/6 mice and cultured in serum-free conditions as previously described. Briefly, the cortices were isolated and digested in 0.5 mg/mL papain at 37°C for 15 min, followed by dissociation in Hibernate-A medium (containing B27 supplement) by aspirating trituration. The cells were then plated onto poly-L-lysine-coated 6-well silastic culture plates (Flexcell International Corporation, Hillsborough, NC, USA) at a density of 5×10^4 cells/cm^2 and maintained in Neurobasal medium supplemented with B27, 10 units/mL penicillin, […], and 0.5 mg/mL glutamine. Four days after plating, 50% of the medium was removed and replaced with fresh medium. The cells were cultured at 37°C in a humidified tri-gas incubator (5%O2, 90% N2, and 5% CO2) and were used at day 10 in vitro. The cortical cultures contain mostly neurons and there were <2% of glia cells, as determined by immunohistochemical staining.
Cultures were stretched by rapid deformation of the silastic culture plates (Flexplates), using the Cell Injury Controller II (Custom Design and Fabrication; Virginia Commonwealth University, Richmond, VA, USA) as previously described. This device uses a regulated flow of compressed gas to rapidly pressurize cells cultured on flexible substrates, causing a radial stretch injury. […] This stimulus intensity corresponds to the “moderate stretch” [62]. The primary cultured neurons were treated with 0.1, 1, 10, 20, and 50 µM salidroside, respectively, immediately following injury. The cortical neurons cultured in plain medium served as control. Cell viability analysis was performed 24 h after injury.
The cell viability was determined by assessing the degree of MTT reduction. Briefly, cells were incubated at 37°C for 2 h with MTT (0.5 mg/mL final concentration; Sigma-Aldrich; St. Louis, MO, USA). Afterwards, a solution of anhydrous isopropanol, HCl (0.1 N), and 0.1% Triton X-100 was added for the dissolution of formazan crystal. The optical density was determined at 570 nm using a microplate reader. Cell viability was expressed as a percentage of the control culture. The experiments were repeated 4 times with different batches of primary cultures.

`OC[C@H]1O[C@@H](OCCc2ccc(O)cc2)[C@H](O)[C@@H](O)[C@@H]1O` [SALD, salidroside]: the results for the “preservation of brain tissue (ipsilateral/contralateral hemisphere volume)” value in data set [1] (20 mg/kg ip 10 min after CCI) and in data set [1] (50 mg/kg ip 10 min after CCI) were 81.9±2.6% and 80.7±2.8%, respectively. Further, in data set [1] (icv saline 30 min before CCI, then SALD 20 mg/kg ip (S20S group)), the “residual cerebral tissue ratio” value is on record as 80.5±5.8%. Also, the “mean elimination half-life (t1/2)” value is “around 0.5 h” in data set [2] (intravenous administration) and approximately 1.1 h in data set [2] (oral administration). Besides, the “cell survival after stretch injury (relative to control)” value was determined as 65.3±1.3% in data set [3] (0.1 µM, P>0.05); 72.5±1.6% in data set [3] (1 µM, P<0.001); 90.9±1.4% in data set [3] (10 µM, P<0.001); 91.4±1.4% in data set [3] (20 µM, P<0.001); 90.5±1.4% in data set [3] (50 µM, P<0.001).
